Source: patent publication US9028845B2, “Chimeric immunomodulatory compounds and methods of using the same-IV” (Dynavax Technologies Corporation, priority 2001, dated 2015)
Entries after “also recorded” stand apart in the source; their conditions may differ.

Test system: human PBMCs
Assay: Human PBMC cytokine response assay (IFN-γ and IFN-α in cell-free medium by ELISA), with or without cPLGA;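 for IFN-α (pg/ml) mean: 20 µg/mL compound for 24 hours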;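 for IFN-γ (pg/ml) mean: 20 µg/mL compound for 24 hours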
Type: cell-based
Conditions: for IFN-a mean / IFN-g mean: mean of donors 28250-28253
[1] = Table 25, donor 28250, polynucleotides/spacers at amounts equivalent to the CIC, spacers alone 9 uM
[2] = donor 28066, 20 ug/ml, 24 h, + PLGA = premixed with 100 μg/ml cPLGA
[3] = donor 28067, 20 ug/ml, 24 h, + PLGA = premixed with 100 μg/ml cPLGA
[4] = donor 28068, 20 ug/ml, 24 h, + PLGA = premixed with 100 μg/ml cPLGA
[5] = mean of Donors 3-4, 20 μg/ml, 24 h
[6] = mean of Donors 9-12, 20 μg/ml, 24 h
[7] = mean of donors 28065-28068, 20 ug/ml, 24 h, + PLGA = premixed with 100 μg/ml cPLGA
[8] = Table 24, mean of donors 28234-28237
[9] = mean of donors 28185-28188, Table 15

In the case of “5′-TCGTCG-3′ [Compound P-2, reference compound]”, the “IFN-α (pg/ml) Donor 3” value (Donor 3, 20 μg/ml, 24 h) is reported as 0 pg/mL, the “IFN-γ (pg/ml) Donor 3” value (Donor 3, 20 μg/ml, 24 h) is reported as 0 pg/mL and the “IFN-α (pg/ml) Donor 4” value (Donor 4, 20 μg/ml, 24 h) is reported as 40 pg/mL. The “IFN-γ (pg/ml) Donor 4” value (Donor 4, 20 μg/ml, 24 h) was 4 pg/mL, the “IFN-α Donor 9” value (Donor 9, 20 μg/ml, 24 h) was 0 and the “IFN-γ Donor 9” value (Donor 9, 20 μg/ml, 24 h) was 2. For the same substance, the “IFN-α Donor 10” value (Donor 10, 20 μg/ml, 24 h) was 2, the “IFN-γ Donor 10” value (Donor 10, 20 μg/ml, 24 h) was 3 and the “IFN-α Donor 11” value (Donor 11, 20 μg/ml, 24 h) was 1. The “IFN-γ Donor 11” value (Donor 11, 20 μg/ml, 24 h) was 1, the “IFN-α Donor 12” value (Donor 12, 20 μg/ml, 24 h) was 4 and the “IFN-γ Donor 12” value (Donor 12, 20 μg/ml, 24 h) was 2. For the same substance, the IFN-a (Table 25, donor 28250) was 16 pg/mL, the IFN-g [1] was 7 pg/mL and the IFN-a (Table 25, donor 28251) was 16 pg/mL. The IFN-g (Table 25, donor 28251) was 25 pg/mL, the IFN-a (Table 25, donor 28252) was 25 pg/mL and the IFN-g (Table 25, donor 28252) was 53 pg/mL. It also gave an IFN-a (Table 25, donor 28253) of 16 pg/mL, an IFN-g (Table 25, donor 28253) of 1 pg/mL and an IFN-a mean (Table 25) of 18 pg/mL. For the same substance, the IFN-g mean (Table 25) was 22 pg/mL, the “IFN-γ (pg/ml) 28065” value (donor 28065 (high background), 20 ug/ml, 24 h, + PLGA = premixed with 100 μg/ml cPLGA, 1000 = outside assay limits) was 79 pg/mL and the “IFN-α (pg/ml) 28065” value (donor 28065, 20 ug/ml, 24 h, + PLGA = premixed with 100 μg/ml cPLGA) was 0 pg/mL. The “IFN-α (pg/ml) 28066” value [2] was 3 pg/mL, the “IFN-γ (pg/ml) 28066” value [2] was 1 pg/mL and the “IFN-α (pg/ml) 28067” value [3] was 0 pg/mL. The “IFN-γ (pg/ml) 28067” value [3] was 1 pg/mL, the “IFN-α (pg/ml) 28068” value [4] was 0 pg/mL and the “IFN-γ (pg/ml) 28068” value [4] was 0 pg/mL. For the same substance, the “IFN-α (pg/ml) mean” value [5] was 20 pg/mL, the “IFN-γ (pg/ml) mean” value [5] was 2 pg/mL and the IFN-α mean [6] was 2. For the same substance, the IFN-γ mean [6] was 2, the “IFN-α (pg/ml) mean” value [7] was 1 pg/mL and the “IFN-γ (pg/ml) mean” value [7] was 20 pg/mL. The “immunomodulatory activity (IFN-γ / IFN-α secretion), in words” value (used alone (no cPLGA)) was “did not have immunomodulatory activity; also recorded: had no activity”.
Substance “5′-TCGT-3′-HEG-5′-TCGT-3′-HEG-5′-TCGT-3′-HEG-5′-TCGT-3′-HEG-5′-TCGT-3′ [Compound C-44]” has an IFN-α (Table 10, donor 28042) of 0 pg/mL, an IFN-γ (Table 10, donor 28042) of 238 pg/mL and an IFN-α (Table 10, donor 28043) of 12 pg/mL. The IFN-γ (Table 10, donor 28043) was 359 pg/mL, the IFN-α (Table 10, donor 28044) was 60 pg/mL and the IFN-γ (Table 10, donor 28044) was 484 pg/mL. For the same substance, the IFN-α (Table 10, donor 28045) was 1 pg/mL, the IFN-γ (Table 10, donor 28045) was 51 pg/mL and the IFN-α mean (Table 10, mean of donors) was 18 pg/mL. For the same substance, the IFN-γ mean (Table 10, mean of donors) was 283 pg/mL, the “activity when formulated with cPLGA, in words” value (formulated with cPLGA) was “induced considerable IFN-γ and IFN-α when formulated with cPLGA” and the “IFN-γ induction, in words” value (used alone) was “induce IFN-γ when used alone”.
In the case of “5′-TCGTCGA-3′-HEG-5′-AACGTTC-3′-HEG-5′-AGATGAT-3′ [Compound C-54]”, the IFN-α (Table 13, donor 28156) is reported as 8 pg/mL, the IFN-γ (Table 13, donor 28156) is reported as 297 pg/mL and the IFN-α (Table 13, donor 28157) is reported as 96 pg/mL. For the same substance, the IFN-γ (Table 13, donor 28157) was 378 pg/mL, the IFN-α (Table 13, donor 28158) was 8 pg/mL and the IFN-γ (Table 13, donor 28158) was 88 pg/mL. The IFN-α (Table 13, donor 28159) was 13 pg/mL, the IFN-γ (Table 13, donor 28159) was 218 pg/mL and the IFN-α mean (Table 13, mean of donors) was 31 pg/mL. It also gave an IFN-γ mean (Table 13, mean of donors) of 245 pg/mL.
“5′-AGATGAT-3′-HEG-5′-ACGTTCG-3′-HEG-5′-TCGTCGA-3′ [Compound C-60]” was tested, and the IFN-α (Table 13, donor 28156) was 5 pg/mL, the IFN-γ (Table 13, donor 28156) was 304 pg/mL and the IFN-α (Table 13, donor 28157) was 22 pg/mL. The IFN-γ (Table 13, donor 28157) was 209 pg/mL, the IFN-α (Table 13, donor 28158) was 3 pg/mL and the IFN-γ (Table 13, donor 28158) was 26 pg/mL. The IFN-α (Table 13, donor 28159) was 1 pg/mL, the IFN-γ (Table 13, donor 28159) was 38 pg/mL and the IFN-α mean (Table 13, mean of donors) was 8 pg/mL. The IFN-γ mean (Table 13, mean of donors) was 144 pg/mL.
In the case of “5′-TCCA-3′-C3-5′-TGACGTT-3′-C3-5′-CCTGATGCT-3′ [Compound C-88]”, the IFN-α (Table 24, donor 28234) is reported as 95 pg/mL, the IFN-γ (Table 24, donor 28234) is reported as 5 pg/mL and the IFN-α (Table 24, donor 28235) is reported as 16 pg/mL. It also gave an IFN-γ (Table 24, donor 28235) of 21 pg/mL, an IFN-α (Table 24, donor 28236) of 212 pg/mL and an IFN-γ (Table 24, donor 28236) of 17 pg/mL. It also gave an IFN-α (Table 24, donor 28237) of 111 pg/mL, an IFN-γ (Table 24, donor 28237) of 477 pg/mL and an IFN-α mean [8] of 109 pg/mL. It also gave an IFN-γ mean [8] of 130 pg/mL.
“5′-TCGACGT-3′-HEG-5′-TCGACGT-3′-HEG-5′-TCGACGT-3′-HEG-5′-TCGACGT-3′ [Compound C-71]” showed an IFN-α (Table 24, donor 28234) of 17 pg/mL, an IFN-γ (Table 24, donor 28234) of 30 pg/mL and an IFN-α (Table 24, donor 28235) of 30 pg/mL. For the same substance, the IFN-γ (Table 24, donor 28235) was 168 pg/mL, the IFN-α (Table 24, donor 28236) was 538 pg/mL and the IFN-γ (Table 24, donor 28236) was 448 pg/mL. It also gave an IFN-α (Table 24, donor 28237) of 1665 pg/mL, an IFN-γ (Table 24, donor 28237) of 1663 pg/mL and an IFN-α mean [8] of 563 pg/mL. For the same substance, the IFN-γ mean [8] was 577 pg/mL.
“5′-TCGAGAT-3′ [Compound P-13, reference compound]” gave an IFN-a (Table 25, donor 28250) of 16 pg/mL, an IFN-g [1] of 18 pg/mL and an IFN-a (Table 25, donor 28251) of 16 pg/mL. It also gave an IFN-g (Table 25, donor 28251) of 13 pg/mL, an IFN-a (Table 25, donor 28252) of 16 pg/mL and an IFN-g (Table 25, donor 28252) of 22 pg/mL. It also gave an IFN-a (Table 25, donor 28253) of 16 pg/mL, an IFN-g (Table 25, donor 28253) of 1 pg/mL and an IFN-a mean (Table 25) of 16 pg/mL. The IFN-g mean (Table 25) was 14 pg/mL.
For “(5′-TCGTCGA-3′-HEG)2-glycerol-HEG-5′-AACGTTC-3′ [Compound C-96]”, the IFN-α (Table 24, donor 28234) was 16 pg/mL, the IFN-γ (Table 24, donor 28234) was 21 pg/mL and the IFN-α (Table 24, donor 28235) was 120 pg/mL. For the same substance, the IFN-γ (Table 24, donor 28235) was 239 pg/mL, the IFN-α (Table 24, donor 28236) was 608 pg/mL and the IFN-γ (Table 24, donor 28236) was 354 pg/mL. For the same substance, the IFN-α (Table 24, donor 28237) was 993 pg/mL, the IFN-γ (Table 24, donor 28237) was 1396 pg/mL and the IFN-α mean [8] was 434 pg/mL. The IFN-γ mean [8] was 503 pg/mL, the “IFN-a” value (donor 28185, Table 15) was 2550 pg/mL and the “IFN-g” value (donor 28185, Table 15) was 163 pg/mL. For the same substance, the “IFN-a” value (donor 28186, Table 15) was 446 pg/mL, the “IFN-g” value (donor 28186, Table 15) was 22 pg/mL and the “IFN-a” value (donor 28187, Table 15) was 118 pg/mL. For the same substance, the “IFN-g” value (donor 28187, Table 15) was 195 pg/mL, the “IFN-a” value (donor 28188, Table 15) was 40 pg/mL and the “IFN-g” value (donor 28188, Table 15) was 12 pg/mL. The “IFN-a (pg/ml) mean” value [9] was 788 pg/mL, the “IFN-g (pg/ml) mean” value [9] was 98 pg/mL and the “IFN-a (pg/ml) ×2” value (mean ×2, Table 15) was 1577 pg/mL. For the same substance, the “IFN-g (pg/ml) ×4” value (mean ×4, Table 15) was 392 pg/mL and the “IFN-α induction, in words” value (used alone) was “induced more IFN-α relative to linear CICs with HEG spacers”.
